Among the test systems are DLD-1 colon; DMS 114 small cell lung; DMS 273 small cell lung; HOP-62 NSCLC; KM20L2 colon; LXFL 529 NSCLC; M19-MEL melanoma; MOLT-4 leukemia; OVCAR-3 ovarian; SF-268 CNS; SF-539 CNS; SNB-78 CNS; DU-145 prostate; MDA-MB-435; NCI/ADR-RES ovarian.
What all share (test): DTP human tumour cell line panel, 48 h

By TGI is commonly meant the concentration at which net growth stops. As a reminder, the GI50 is the concentration at which growth is held to half of that of the control.

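96-well plates; 48 h exposure; 5 concentrations. Endpoints by linear interpolation between flanking doses. Not reached: highest tested concentration assigned. At the GI50, growth is halved. TGI denotes the concentration required for complete inhibition of growth.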 A value given as a limit tells only on which side of the number the result lay.

Regarding `C[N+](C)(C)Cc1c(CC#N)[nH]c2ccccc12`, the TGI with DLD-1 colon, in the experiment on DMS 114 small cell lung, in the experiment with DMS 273 small cell lung, in the experiment with HOP-62 NSCLC, with KM20L2 colon and with LXFL 529 NSCLC was over 100 µM throughout. Moreover, the TGI in the experiment on M19-MEL melanoma, with MOLT-4 leukemia, with OVCAR-3 ovarian, with SF-268 CNS and with SF-539 CNS was over 100 µM in each case.
Turning to `CC(C)[Si](OCC1CC(C[C@H]2CC(C[C@H]3C[C@@H](CO[Si](C(C)C)(C(C)C)C(C)C)OC(C)(C)O3)OC(C)(C)O2)OC(C)(C)O1)(C(C)C)C(C)C` (stereo partly specified), the TGI in the experiment on DLD-1 colon, with DMS 114 small cell lung, with DMS 273 small cell lung, with HOP-62 NSCLC, in the experiment on KM20L2 colon and in the experiment on M19-MEL melanoma was over 100 µM in each case. Besides, the TGI in the experiment on MOLT-4 leukemia, in the experiment on OVCAR-3 ovarian, in the experiment on SF-268 CNS, in the experiment with SF-539 CNS and in the experiment on SNB-78 CNS was over 100 µM each time.
As for `O=c1[nH]c(=O)n(C2CC(O)C(CO)O2)cc1C#Cc1cc(C(F)(F)F)cc(C(F)(F)F)c1` (stereo unspecified), the TGI is over 100 µM in the experiment with DLD-1 colon; over 100 µM in the experiment on DMS 114 small cell lung; over 93.6 µM with DMS 273 small cell lung; over 100 µM with HOP-62 NSCLC; over 100 µM in the experiment with KM20L2 colon; over 100 µM in the experiment with LXFL 529 NSCLC. Besides, the TGI was over 74 µM in the experiment with M19-MEL melanoma; over 100 µM in the experiment on MOLT-4 leukemia; over 100 µM in the experiment on OVCAR-3 ovarian; over 100 µM in the experiment with SF-268 CNS; over 90.9 µM in the experiment with SF-539 CNS; over 100 µM in the experiment with SNB-78 CNS.
In the case of `COc1cc2c(oc(=O)c3cc4ccoc4c(OC)c32)c2cccc(O)c12`, the TGI with DLD-1 colon, in the experiment with DMS 114 small cell lung, in the experiment on DMS 273 small cell lung, in the experiment on HOP-62 NSCLC, in the experiment with KM20L2 colon and in the experiment with LXFL 529 NSCLC was over 100 µM throughout. The TGI in the experiment on M19-MEL melanoma, with MOLT-4 leukemia, in the experiment with OVCAR-3 ovarian, with SF-268 CNS, in the experiment on SF-539 CNS and with SNB-78 CNS was over 100 µM throughout.
For `Cc1ccc(S(=O)(=O)N/N=C/c2oc(-c3ccccc3Cl)c(-c3ccccc3Cl)c2[N+](=O)[O-])cc1`, the TGI in the experiment with DLD-1 colon was 47.9 µM; with DMS 114 small cell lung it was 76.7 µM; in the experiment on HOP-62 NSCLC, 43.5 µM; with KM20L2 colon it was 37.9 µM; with M19-MEL melanoma, 65 µM; in the experiment with MOLT-4 leukemia, over 100 µM. The TGI was over 100 µM in the experiment with OVCAR-3 ovarian, over 100 µM in the experiment with SF-268 CNS and 46.1 µM in the experiment with SF-539 CNS.
For `NC(CCCCN=Cc1nc(-c2ccccc2)oc1O)C(=O)O` (stereo unspecified), the TGI in the experiment with DLD-1 colon, with DMS 114 small cell lung, in the experiment with DMS 273 small cell lung, in the experiment with HOP-62 NSCLC, in the experiment on KM20L2 colon and with LXFL 529 NSCLC was over 100 µM throughout. The TGI with M19-MEL melanoma, with MOLT-4 leukemia, with OVCAR-3 ovarian, in the experiment with SF-268 CNS, with SF-539 CNS and in the experiment with SNB-78 CNS was over 100 µM in each case.
Turning to `O=C1c2ccccc2C(=O)C2C3c4ccccc4C(c4ccccc43)C12` (stereo unspecified), the TGI was over 100 µM in the experiment on DLD-1 colon; 42.7 µM in the experiment with DMS 114 small cell lung; 39.4 µM in the experiment on DMS 273 small cell lung; over 100 µM in the experiment with HOP-62 NSCLC; over 100 µM in the experiment on KM20L2 colon; 37.2 µM in the experiment with LXFL 529 NSCLC. For the same compound, the concentration for total growth inhibition (TGI) in the experiment on M19-MEL melanoma is 40 µM; with MOLT-4 leukemia, 27.9 µM; with OVCAR-3 ovarian, 45.8 µM; with SF-268 CNS, 34.9 µM; in the experiment with SF-539 CNS, 25.4 µM; with SNB-78 CNS, 51.3 µM.
Consider `C=C(CN(C)C)C(=O)c1cc(C)ccc1C`, for which the TGI with DLD-1 colon is 7.47 µM; with DMS 114 small cell lung, 21.4 µM; with DMS 273 small cell lung it was 39.3 µM; with DU-145 prostate, 22 µM; in the experiment with HOP-62 NSCLC, 33.8 µM; in the experiment with KM20L2 colon, 61.2 µM. The TGI is 5.42 µM in the experiment with LXFL 529 NSCLC; 19.6 µM in the experiment on M19-MEL melanoma; 22.1 µM in the experiment with MDA-MB-435; 3.86 µM in the experiment on MOLT-4 leukemia; over 85.1 µM with NCI/ADR-RES ovarian; 18.1 µM with OVCAR-3 ovarian. Moreover, the figures for the TGI with SF-268 CNS, with SF-539 CNS and with SNB-78 CNS were 68.3 µM, 19.2 µM and 81.5 µM, respectively.
Take `Nc1ccc(C(=O)NN2C(=O)C(Cl)C2c2ccc([N+](=O)[O-])cc2)cc1` (stereo unspecified): the TGI with DLD-1 colon came to 21.8 µM; in the experiment on DMS 114 small cell lung it was 11.2 µM; with DMS 273 small cell lung, 17.5 µM; in the experiment on HOP-62 NSCLC, 23.2 µM; with KM20L2 colon, 27.4 µM; in the experiment with LXFL 529 NSCLC, 18.2 µM. Also, the TGI in the experiment on M19-MEL melanoma was 28 µM; in the experiment on MOLT-4 leukemia, 9.8 µM; in the experiment on OVCAR-3 ovarian, 18.4 µM; in the experiment on SF-268 CNS it was 12.2 µM; in the experiment on SF-539 CNS, 25.6 µM; with SNB-78 CNS it was 51.7 µM.
Turning to `CC(=O)[O-].[Ni].c1ccc(/C(=N\Nc2ccccn2)c2ccccn2)cc1`, the TGI in the experiment with DLD-1 colon was found to be 32.7 µM; with DMS 114 small cell lung, 3.36 µM; in the experiment on DMS 273 small cell lung, 25.5 µM; in the experiment with DU-145 prostate, 25.1 µM; in the experiment with HOP-62 NSCLC it was 30.1 µM; in the experiment on KM20L2 colon, 22.1 µM. For the same compound, the TGI in the experiment with LXFL 529 NSCLC is 16 µM; in the experiment on M19-MEL melanoma it was 39.3 µM; in the experiment with MDA-MB-435, 22.4 µM; in the experiment with MOLT-4 leukemia, 24.3 µM; in the experiment on NCI/ADR-RES ovarian it was 25.9 µM; with OVCAR-3 ovarian it was 19.5 µM. In addition, the TGI in the experiment on SF-268 CNS was 30.1 µM; in the experiment with SF-539 CNS, 24.7 µM; in the experiment on SNB-78 CNS, over 100 µM. Further, the GI50 in the experiment on MOLT-4 leukemia is 0.076 µM; in the experiment with OVCAR-3 ovarian, 0.0385 µM.
With `CC(C)C(Sc1nc(-c2ccccc2)c(-c2ccccc2)[nH]1)C(=O)N/N=C/c1ccc([N+](=O)[O-])cc1` (stereo unspecified), the TGI with DLD-1 colon was over 100 µM; in the experiment on DMS 114 small cell lung, 68.2 µM; in the experiment on DMS 273 small cell lung, 27.5 µM; with HOP-62 NSCLC, 37.8 µM; in the experiment with KM20L2 colon, 32.9 µM; with LXFL 529 NSCLC, 33.8 µM. The TGI with M19-MEL melanoma is 23.8 µM; in the experiment on MOLT-4 leukemia, 10.3 µM; with OVCAR-3 ovarian, 21.3 µM; with SF-268 CNS, 40 µM; with SF-539 CNS, 36.5 µM; with SNB-78 CNS, over 100 µM.
Take `O=C1SC(c2ccccc2)(c2ccccc2)c2ccccc21`: the TGI in the experiment with DLD-1 colon was over 100 µM; in the experiment on DMS 114 small cell lung, 94.4 µM; in the experiment with DMS 273 small cell lung, over 100 µM; in the experiment with HOP-62 NSCLC it was over 100 µM; with KM20L2 colon, over 100 µM; in the experiment on LXFL 529 NSCLC, over 100 µM. The TGI in the experiment with M19-MEL melanoma, in the experiment on MOLT-4 leukemia, in the experiment with OVCAR-3 ovarian, with SF-268 CNS, with SF-539 CNS and in the experiment on SNB-78 CNS was over 100 µM in each case.
Turning to `Cc1nc2c(n1CCC(C)C)C(=O)c1ccccc1C2=O`, the TGI was over 100 µM in the experiment with DLD-1 colon; 29.4 µM with DMS 273 small cell lung; 50.7 µM in the experiment on HOP-62 NSCLC; over 100 µM in the experiment on KM20L2 colon; over 100 µM in the experiment on LXFL 529 NSCLC; 28.5 µM in the experiment on M19-MEL melanoma. The concentration for total growth inhibition (TGI) with MOLT-4 leukemia was 76.2 µM; in the experiment on OVCAR-3 ovarian, 71.4 µM; in the experiment on SF-268 CNS, 43.1 µM; in the experiment with SF-539 CNS, 25.4 µM; with SNB-78 CNS, over 100 µM.
In the case of `NC(CCCNc1cccc(O)c1)C(=O)O` (stereo unspecified), the TGI in the experiment on DLD-1 colon, in the experiment with DMS 114 small cell lung, in the experiment on DMS 273 small cell lung, with HOP-62 NSCLC, with KM20L2 colon and in the experiment with LXFL 529 NSCLC was over 100 µM throughout. Further, the TGI in the experiment with M19-MEL melanoma, with MOLT-4 leukemia, with OVCAR-3 ovarian, in the experiment with SF-268 CNS and in the experiment with SNB-78 CNS was over 100 µM in each case.
Regarding `COc1ccc(CC2NCCc3cc(OC)c(OC)cc32)cc1` (stereo unspecified), the concentration for total growth inhibition (TGI) in the experiment on DLD-1 colon, in the experiment with DMS 114 small cell lung, in the experiment with DMS 273 small cell lung, in the experiment on HOP-62 NSCLC, with KM20L2 colon and in the experiment with LXFL 529 NSCLC was over 100 µM in each case. Further, the TGI in the experiment on M19-MEL melanoma, with MOLT-4 leukemia, in the experiment with OVCAR-3 ovarian, in the experiment with SF-268 CNS, in the experiment with SF-539 CNS and with SNB-78 CNS was over 100 µM each time.

For the origin of these results see PubChem BioAssay (NCI).
